This passage reports IC50 results from US20240376085A1 (Janssen Pharmaceutica NV, priority 2021, published 2024).

In assay [1] the test system is IL-17A-induced G-CSF production in human normal keratinocyte (NHK). The assay is described as follows: NHK assay: IL-17A-induced G-CSF production in normal human keratinocytes. The format is cell-based. The note with it: 24 h, IL-17A 5 ng/mL, average if tested more than once. In short, it runs like this: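 Stimulus rhIL-17A 5 ng/mL final, premixed 1 h rt with compound; adult NHK, 5% FBS, 0.2% DMSO. Viability by CellTiter-Glo vs DMSO.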

Assay [2] concerns the target T1, IL-17A : IL-17RA binding (Homo sapiens, UniProt Q16552, K93Q).
T1 construct: Name: IL-17A-Flag
Put plainly: IL-17A(FLAG-tagged):IL-17RA(His-tagged) binding disruption Eu-HTRF assay, Protocol 1. Particulars: FLAG-IL-17A 2.5 nM at 2x final concentration; average if tested more than once. In short, it runs like this:
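IC50 came from a one-site competition fit of the acceptor/donor (665/620 nm) HTRF ratio. His-tagged IL-17RA, Eu-anti-FLAG and D2-anti-His were added after a 1 h rt compound preincubation with FLAG-tagged IL-17A dimer in PBS/0.01% Triton X-100, followed by 2 h at rt before reading.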

Where only a bound is given, the exact number is not on record here.

T1 sequence (Q16552 with tags, fused parts or gaps K93Q): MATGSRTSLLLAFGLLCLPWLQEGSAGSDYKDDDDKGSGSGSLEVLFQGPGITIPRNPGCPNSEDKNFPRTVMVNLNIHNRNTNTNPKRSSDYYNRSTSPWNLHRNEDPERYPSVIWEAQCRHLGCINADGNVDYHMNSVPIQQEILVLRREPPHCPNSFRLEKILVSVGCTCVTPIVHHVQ

A word on the IC50: it is the concentration that gives 50% inhibition. In the case of `CC(C)n1nccc1C(=O)NC(CO[C@H](C)C(F)(F)F)c1nc2ccc([C@H](NC(=O)CC3CC(F)(F)C3)C3CC3)cc2[nH]1` (single isomer, unassigned) [Example 157, N—((R*)-1-(6-((R)-Cyclopropyl(2-(3,3-difluorocyclobutyl)acetamido)methyl)-1H-benzo[d]imidazol-2-yl)-2-(((R)-1,1,1-trifluoropropan-2-yl)oxy)ethyl)-1-isopropyl-1H-pyrazole-5-carboxamide], the 50% inhibitory concentration (IC50) in assay [1] (Homo sapiens, Keratinocyte) is 50 to 100 nM; in assay [2] it was less than 50 nM.

As for `C[C@@H](NC(=O)CCC(F)(F)F)c1ccc2[nH]c([C@@H](NC(=O)c3cn(CCC(F)(F)F)cn3)C3CCC(F)(F)CC3)nc2c1` [Example 226, N—((S)-(4,4-Difluorocyclohexyl)(5-((R)-1-(4,4,4-trifluorobutanamido)ethyl)-1H-benzo[d]imidazol-2-yl)methyl)-1-(3,3,3-trifluoropropyl)-1H-imidazole-4-carboxamide], the IC50 was greater than 100 nM in assay [1] (Homo sapiens, Keratinocyte) and greater than 100 nM in assay [2].

Consider `C[C@@H](OC[C@H](NC(=O)c1nonc1C1CC1)c1nc2ccc([C@H](NC(=O)CC3CC(F)(F)C3)C3CC3)cc2[nH]1)C(F)(F)F` (relative stereo) [Example 155, 4-Cyclopropyl-N—((R*)-1-(6-((R)-cyclopropyl(2-(3,3-difluorocyclobutyl)acetamido)methyl)-1H-benzo[d]imidazol-2-yl)-2-(((R)-1,1,1-trifluoropropan-2-yl)oxy)ethyl)-1,2,5-oxadiazole-3-carboxamide], for which the 50% inhibitory concentration (IC50) in assay [1] (Homo sapiens, Keratinocyte) was greater than 100 nM; in assay [2], less than 50 nM.

Take `C[C@@H](NC(=O)CCC(F)(F)F)c1ccc2nc([C@@H](NC(=O)c3cnn(CCC(F)F)n3)C3CCC(F)(F)CC3)[nH]c2c1` [Example 73, N—((S)-(4,4-Difluorocyclohexyl)(6-((R)-1-(4,4,4-trifluorobutanamido)ethyl)-1H-benzo[d]imidazol-2-yl)methyl)-2-(3,3-difluoropropyl)-2H-1,2,3-triazole-4-carboxamide]: the IC50 in assay [1] (Homo sapiens, Keratinocyte) is greater than 100 nM; in assay [2] it was greater than 100 nM.

Take `CC(C)(OCC(NC(=O)c1nonc1C1CC1)c1nc2ccc([C@H](NC(=O)CC3CC(F)(F)C3)C3CC3)cc2[nH]1)C(F)(F)F` (single isomer, unassigned) [Example 163, 4-Cyclopropyl-N—((S*)-1-(6-((R)-cyclopropyl(2-(3,3-difluorocyclobutyl)acetamido)methyl)-1H-benzo[d]imidazol-2-yl)-2-((1,1,1-trifluoro-2-methylpropan-2-yl)oxy)ethyl)-1,2,5-oxadiazole-3-carboxamide]: the IC50 in assay [1] (Homo sapiens, Keratinocyte) is greater than 100 nM; in assay [2], greater than 100 nM.

As to `C[C@@H](NC(=O)CCC(F)(F)F)c1ccc2[nH]c([C@@H](NC(=O)c3ncn(CC4CC4)n3)C3CCC(F)(F)CC3)nc2c1` [Example 29, 1-(Cyclopropylmethyl)-N—[(S)-(4,4-difluorocyclohexyl)-[6-[(1R)-1-(4,4,4-trifluorobutanoylamino)ethyl]-1H-benzimidazol-2-yl]methyl]-1,2,4-triazole-3-carboxamide], the half-inhibitory concentration (IC50) in assay [1] (Homo sapiens, Keratinocyte) was greater than 100 nM; in assay [2] it was greater than 100 nM.

As to `CC(C)c1oncc1C(=O)N[C@H](c1nc2cc([C@@H](C)NC(=O)CCC(F)(F)F)ccc2[nH]1)C1CCC(F)(F)CC1` [Example 202, N—((S)-(4,4-Difluorocyclohexyl)(5-((R)-1-(4,4,4-trifluorobutanamido)ethyl)-1H-benzo[d]imidazol-2-yl)methyl)-5-isopropylisoxazole-4-carboxamide], the 50% inhibitory concentration (IC50) in assay [1] (Homo sapiens, Keratinocyte) was less than 50 nM; in assay [2] it was less than 50 nM.

Consider `C[C@@H](NC(=O)CCC(F)(F)F)c1ccc2[nH]c([C@@H](NC(=O)CC3CC3(F)F)C3CCC(F)(F)CC3)nc2c1` (single isomer, unassigned) [Example 108, N—((R)-1-(2-((S)-(4,4-Difluorocyclohexyl)(2-((S*)-2,2-difluorocyclopropyl)acetamido)methyl)-1H-benzo[d]imidazol-5-yl)ethyl)-4,4,4-trifluorobutanamide], for which the half-maximal inhibitory concentration (IC50) in assay [1] and in assay [2] was greater than 100 nM in each case.

For `Cc1nonc1C(=O)N[C@H](c1nc2ccc([C@H](NC(=O)CC3CC(F)(F)C3)C3CC3)cc2[nH]1)[C@H]1C[C@@H]2[C@H](C1)C2(F)F` [Example 240, N—((S)-(6-((R)-Cyclopropyl(2-(3,3-difluorocyclobutyl)acetamido)methyl)-1H-benzo[d]imidazol-2-yl)((1R,3r,5S)-6,6-difluorobicyclo[3.1.0]hexan-3-yl)methyl)-4-methyl-1,2,5-oxadiazole-3-carboxamide], the IC50 in assay [1] (Homo sapiens, Keratinocyte) is greater than 100 nM; in assay [2], less than 50 nM.

On to `CC(C(F)F)n1cc(C(=O)N[C@H](c2nc3cc([C@@H](C)NC(=O)CCC(F)(F)F)ccc3[nH]2)C2CCC(F)(F)CC2)nn1` (stereo partly drawn) [Example 85, N—((S)-(4,4-Difluorocyclohexyl)(5-((R)-1-(4,4,4-trifluorobutanamido)ethyl)-1H-benzo[d]imidazol-2-yl)methyl)-1-(1,1-difluoropropan-2-yl)-1H-1,2,3-triazole-4-carboxamide], for which the IC50 in assay [1] (Homo sapiens, Keratinocyte) is greater than 100 nM; in assay [2] it was greater than 100 nM.

With `C[C@@H](NC(=O)CCC(F)(F)F)c1ccc2nc([C@@H](NC(=O)c3ccccc3)C3CCC(F)(F)CC3)[nH]c2c1` [Example 120, N—((S)-(4,4-Difluorocyclohexyl)(6-((R)-1-(4,4,4-trifluorobutanamido)ethyl)-1H-benzo[d]imidazol-2-yl)methyl)benzamide], the IC50 in assay [1] (Homo sapiens, Keratinocyte) was 50 to 100 nM; in assay [2], greater than 100 nM.

Regarding `CC(C)n1nccc1C(=O)N[C@H](c1nc2ccc([C@H](NC(=O)CC3CC(F)(F)C3)C3CC3)cc2[nH]1)C1CC(F)(F)CCO1` (single isomer, unassigned) [Example 172, N—((R)-(6-((R)-Cyclopropyl(2-(3,3-difluorocyclobutyl)acetamido)methyl)-1H-benzo[d]imidazol-2-yl)((S*)-4,4-difluorotetrahydro-2H-pyran-2-yl)methyl)-1-isopropyl-1H-pyrazole-5-carboxamide], the half-maximal inhibitory concentration (IC50) is less than 50 nM in assay [1] (Homo sapiens, Keratinocyte) and greater than 100 nM in assay [2].

Regarding `CC(C)n1nccc1C(=O)N[C@H](c1nc2ccc([C@@H](C)NC(=O)CC(C)C(F)(F)F)cc2[nH]1)C1CCC(F)(F)CC1` (single isomer, unassigned) [Example 135, N—((S)-(4,4-Difluorocyclohexyl)(6-((R)-1-((R*)-4,4,4-trifluoro-3-methylbutanamido)ethyl)-1H-benzo[d]imidazol-2-yl)methyl)-1-isopropyl-1H-pyrazole-5-carboxamide], the half-inhibitory concentration (IC50) is less than 50 nM in assay [1] (Homo sapiens, Keratinocyte) and greater than 100 nM in assay [2].

Regarding `Cc1c(C(=O)NC(CC(C)(C)C(F)(F)F)c2nc3cc([C@@H](C)NC(=O)CCC(F)(F)F)ccc3[nH]2)cnn1CC(F)(F)F` (stereo in doubt) [Example 223, 5-Methyl-N—((S*)-4,4,4-trifluoro-3,3-dimethyl-1-(5-((R)-1-(4,4,4-trifluorobutanamido)ethyl)-1H-benzo[d]imidazol-2-yl)butyl)-1-(2,2,2-trifluoroethyl)-1H-pyrazole-4-carboxamide], the IC50 in assay [1] (Homo sapiens, Keratinocyte) is greater than 100 nM; in assay [2] it was greater than 100 nM.

For the compound `C[C@@H](NC(=O)CCC(F)(F)F)c1ccc2nc([C@@H](NC(=O)c3cnnn3C3CC3)C3CCC(F)(F)CC3)[nH]c2c1` [Example 60, 1-Cyclopropyl-N—((S)-(4,4-difluorocyclohexyl)(6-((R)-1-(4,4,4-trifluorobutanamido)ethyl)-1H-benzo[d]imidazol-2-yl)methyl)-1H-1,2,3-triazole-5-carboxamide], the IC50 in assay [1] (Homo sapiens, Keratinocyte) is greater than 100 nM; in assay [2] it was greater than 100 nM.

Turning to `Cc1nonc1C(=O)N[C@H](c1nc2cc([C@@H](C)NC(=O)CCC(F)(F)F)ccc2[nH]1)[C@@H]1CCCC(F)(F)C1` [Example 264, N—((S)—((R)-3,3-Difluorocyclohexyl)(5-((R)-1-(4,4,4-trifluorobutanamido)ethyl)-1H-benzo[d]imidazol-2-yl)methyl)-4-methyl-1,2,5-oxadiazole-3-carboxamide], the half-maximal inhibitory concentration (IC50) is greater than 100 nM in assay [1] (Homo sapiens, Keratinocyte) and less than 50 nM in assay [2].

As to `CC(C)n1nccc1C(=O)N[C@@H](CC1(C(F)(F)F)CC1)c1nc2ccc([C@H](NC(=O)CC3CC(F)(F)C3)C3CC3)cc2[nH]1` [Example 243, N—((S)-1-(6-((R)-Cyclopropyl(2-(3,3-difluorocyclobutyl)acetamido)methyl)-1H-benzo[d]imidazol-2-yl)-2-(1-(trifluoromethyl)cyclopropyl)ethyl)-1-isopropyl-1H-pyrazole-5-carboxamide], the IC50 in assay [1] (Homo sapiens, Keratinocyte) was 50 to 100 nM; in assay [2], greater than 100 nM.

As to `C[C@@H](NC(=O)CCC(F)(F)F)c1ccc2nc([C@@H](NC(=O)c3cn(CC(F)(F)F)nc3C3CC3)C3CCC(F)(F)CC3)[nH]c2c1` [Example 75, 3-Cyclopropyl-N—((S)-(4,4-difluorocyclohexyl)(6-((R)-1-(4,4,4-trifluorobutanamido)ethyl)-1H-benzo[d]imidazol-2-yl)methyl)-1-(2,2,2-trifluoroethyl)-1H-pyrazole-4-carboxamide], the 50% inhibitory concentration (IC50) was greater than 100 nM in assay [1] (Homo sapiens, Keratinocyte) and greater than 100 nM in assay [2].

For `Cc1nonc1C(=O)N[C@@H](CO[C@H](C)C(F)(F)F)c1nc2ccc([C@H](NC(=O)CC3CC(F)(F)C3)C3CC3)cc2[nH]1` (relative stereo) [Example 150, N—((R*)-1-(6-((R)-Cyclopropyl(2-(3,3-difluorocyclobutyl)acetamido)methyl)-1H-benzo[d]imidazol-2-yl)-2-(((R*)-1,1,1-trifluoropropan-2-yl)oxy)ethyl)-4-methyl-1,2,5-oxadiazole-3-carboxamide], the concentration for half-maximal inhibition (IC50) in assay [1] (Homo sapiens, Keratinocyte) is greater than 100 nM; in assay [2] it was greater than 100 nM.
